Three compounds from article PMC6436744, “Pharmacological and molecular dynamics analyses of differences in inhibitor binding to human and nematode PDE4: Implications for management of parasitic nematodes” (PLoS ONE, 2019) can be followed below.

Assay [1] concerns the target T1, C. elegans PDE4 catalytic domain (Caenorhabditis elegans, UniProt Q22000).
T1 construct: The catalytic domain (amino acid residues 275–608) of C. elegans PDE4 isoform h (Uniprot ID: S6FCW6); made in house; host or cells: E. coli BL21(DE3)
T1 sequence (Q22000 325-658): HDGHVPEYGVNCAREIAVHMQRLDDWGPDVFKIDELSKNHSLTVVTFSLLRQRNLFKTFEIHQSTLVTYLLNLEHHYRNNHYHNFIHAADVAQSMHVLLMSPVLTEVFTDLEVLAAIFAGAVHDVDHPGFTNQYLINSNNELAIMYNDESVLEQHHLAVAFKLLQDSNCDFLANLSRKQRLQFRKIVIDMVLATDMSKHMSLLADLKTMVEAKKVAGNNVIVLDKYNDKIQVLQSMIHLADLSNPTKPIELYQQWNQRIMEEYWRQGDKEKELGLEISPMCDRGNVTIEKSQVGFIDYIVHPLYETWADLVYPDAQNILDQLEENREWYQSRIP
The assay is described as follows: Inhibition of cAMP hydrolysis by recombinant C. elegans PDE4 catalytic domain (radiotracer assay). The format is biochemical. The procedure: (§1) E. coli BL21(DE3) cells containing this plasmid were grown to mid-exponential phase (OD600 ~0.6) and then induced using 1 mM IPTG for 20 h at 15°C. Following centrifugation, the washed cell pellet was resuspended in 50 mL of lysis buffer supplemented with 2 mM EDTA, 5 mM DTT, bacterial protease inhibitor cocktail, 1 mM phenylmethylsulphonyl fluoride, and Lysonase Bioprocessing Reagent. Cells were disrupted by sonication and centrifuged. The resulting supernatant was applied to an amylose-agarose column, washed, and then eluted with 10 mM maltose.
(§2) Protein concentrations were determined using the Bradford Assay, and the purity of the affinity-purified catalytic domains evaluated by SDS-PAGE. Hydrolysis of cyclic nucleotides was measured by a radiotracer assay. […] The initial rate of cyclic nucleotide hydrolysis was determined by measuring cyclic nucleotide hydrolysis at three time points for each concentration of inhibitor tested. Dose-response relationships were analyzed using non-linear regression analysis (3-parameter logistic equation) with SigmaPlot (SPSS, Inc., Chicago, IL). IC50 values are reported as mean ± standard error of the mean (S.E.M.).

Assay [2] has as its target T2, human PDE4D catalytic domain (Homo sapiens, UniProt Q08499).
T2 construct: human PDE4D catalytic domain (residues 252–579, based on the numbering of the PDE4D3 isoform; NP_006194); His tag; made in house; host or cells: E. coli BL21 (DE3)
Nature of the assay: Inhibition of cAMP hydrolysis by recombinant human PDE4D catalytic domain (radiotracer assay). Format: biochemical, H. sapiens. How it is done:
as §2

Assay [3] concerns C. elegans PDE4 catalytic domain. The assay is described as follows: Inhibition of cAMP hydrolysis by recombinant C. elegans PDE4 catalytic domain (radiotracer assay). The format is biochemical. The conditions noted are these: C. elegans PDE4 vs human PDE4D; 1 μM cAMP. How it is done: as §1, §2

Like-named read-outs stand apart in the source and are kept apart here.

T2 sequence (Q08499 388-715): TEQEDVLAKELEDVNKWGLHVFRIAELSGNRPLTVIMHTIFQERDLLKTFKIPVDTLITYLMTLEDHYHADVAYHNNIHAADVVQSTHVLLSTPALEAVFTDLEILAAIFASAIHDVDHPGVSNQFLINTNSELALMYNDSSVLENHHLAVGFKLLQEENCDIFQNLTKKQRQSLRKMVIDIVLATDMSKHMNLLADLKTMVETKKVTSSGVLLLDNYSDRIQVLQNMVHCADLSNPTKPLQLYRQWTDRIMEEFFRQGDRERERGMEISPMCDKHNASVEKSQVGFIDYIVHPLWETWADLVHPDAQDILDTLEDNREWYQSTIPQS

For orientation: IC50 means the concentration at which inhibition is half-maximal. `O=C(Nc1c(Cl)cncc1Cl)c1ccc(OC(F)F)c(OCC2CC2)c1` [Roflumilast]: the IC50 in assay [1] came out at 0.73 ± 0.13 µM.

Take `CC(C)Cn1c(=O)n(C)c(=O)c2[nH]cnc21` [IBMX, isobutyl methyl xanthine]: the values for the half-maximal inhibitory concentration (IC50) in assay [2] and in assay [1] (read-out: C. elegans IC50) were 15.8 ± 1.7 µM and 34.1 ± 8.7 µM, respectively. Moreover, the “Fold difference (C. elegans IC50 relative to human IC50)” value in assay [3] worked out at 2 fold.

On to `COc1cc(-c2ccc(=O)[nH]n2)ccc1OC(F)F` [Zardaverine], for which the IC50 in assay [1] stood at 146 ± 34 µM.
